From ChEMBL document CHEMBL1201862, “PubChem BioAssay data set” (2004)
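In this assay, cells in 96-well plates receive the compound at five concentrations for 48 hours. Endpoints are linearly interpolated between the surrounding concentrations. GI50 = concentration required for 50% inhibition of growth.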 Calls of active or inactive are those of the source. Cut-off read from the data, not from the text of the source: active = GI50 up to about 1.1 µM and inactive = higher.

Columns and labels:
Test in all cases: NCI tumour cell line growth inhibition, 48 h
A498 = tested on: A498
A549 = tested on: A549
CAKI-1 = tested on: CAKI-1
HCT-116 = tested on: HCT-116
HOP-92 = tested on: HOP-92
Hs-578T = tested on: Hs-578T
IGROV-1 = tested on: IGROV-1
K562 = tested on: K562
NCI-H226 = tested on: NCI-H226
NCI-H23 = tested on: NCI-H23
OVCAR-3 = tested on: OVCAR-3
OVCAR-8 = tested on: OVCAR-8
SF-539 = tested on: SF-539
SK-MEL-5 = tested on: SK-MEL-5
SK-OV-3 = tested on: SK-OV-3
SN12C = tested on: SN12C
SNB-19 = tested on: SNB-19
SNB-75 = tested on: SNB-75
T47D = tested on: T47D
UACC-257 = tested on: UACC-257

Compound	GI50 (A498)	GI50 (A549)	GI50 (CAKI-1)	GI50 (HCT-116)	GI50 (HOP-92)	GI50 (Hs-578T)	GI50 (IGROV-1)	GI50 (K562)	GI50 (NCI-H226)	GI50 (NCI-H23)	GI50 (OVCAR-3)	GI50 (OVCAR-8)	GI50 (SF-539)	GI50 (SK-MEL-5)	GI50 (SK-OV-3)	GI50 (SN12C)	GI50 (SNB-19)	GI50 (SNB-75)	GI50 (T47D)	GI50 (UACC-257)
Cc1cc(C2(c3cc(C)c(O)c4ncccc34)OC(=O)c3ccccc32)c2cccnc2c1O	1.47 µM (inactive)	< 0.001 µM (active)	0.00953 µM (active)	0.00268 µM (active)	0.252 µM (active)	0.0127 µM (active)	0.0378 µM (active)	0.0776 µM (active)	0.01 µM (active)	0.0187 µM (active)	0.0056 µM (active)	0.00615 µM (active)	0.0376 µM (active)	0.0231 µM (active)	4.52 µM (inactive)	0.0353 µM (active)	0.0174 µM (active)	0.069 µM (active)	0.0382 µM (active)	2.77 µM (inactive)
CC(=O)Nc1ccc(/C=C/[N+](=O)[O-])cc1	5.19 µM (inactive)	4.47 µM (inactive)	0.573 µM (active)	2.42 µM (inactive)	4.14 µM (inactive)	4.85 µM (inactive)	2.37 µM (inactive)	2 µM (inactive)	1.67 µM (inactive)	3.09 µM (inactive)	2.98 µM (inactive)	6.07 µM (inactive)	2.37 µM (inactive)	2.36 µM (inactive)	8.93 µM (inactive)	3.37 µM (inactive)	7.19 µM (inactive)	1.5 µM (inactive)	4.1 µM (inactive)	5.21 µM (inactive)
CC(C)=NNc1ncnc2[nH]cnc12	5.07 µM (inactive)	4.89 µM (inactive)	3.66 µM (inactive)	3.71 µM (inactive)	16.9 µM (inactive)	11.8 µM (inactive)	7.82 µM (inactive)	> 19.6 µM (inactive)	12 µM (inactive)	29.6 µM (inactive)	5.78 µM (inactive)	5.55 µM (inactive)	36.4 µM (inactive)	14.5 µM (inactive)	3.88 µM (inactive)	14.5 µM (inactive)	45.5 µM (inactive)	18.2 µM (inactive)	11.2 µM (inactive)	10 µM (inactive)
O=C(O)CCc1nc(-c2ccccc2-n2cccc2)no1	> 100 µM (inactive)	> 100 µM (inactive)	> 100 µM (inactive)	> 100 µM (inactive)	> 100 µM (inactive)	> 100 µM (inactive)	73.1 µM (inactive)	> 100 µM (inactive)	> 100 µM (inactive)	> 100 µM (inactive)	29 µM (inactive)	> 100 µM (inactive)	> 100 µM (inactive)	> 100 µM (inactive)	> 100 µM (inactive)	> 100 µM (inactive)	> 100 µM (inactive)	> 100 µM (inactive)	> 100 µM (inactive)	> 100 µM (inactive)
C=C(Br)C/N=C/N(C)C	> 100 µM (inactive)	> 100 µM (inactive)	> 100 µM (inactive)	> 100 µM (inactive)	> 100 µM (inactive)	> 100 µM (inactive)	> 100 µM (inactive)	> 100 µM (inactive)	> 100 µM (inactive)	> 100 µM (inactive)	> 100 µM (inactive)	> 100 µM (inactive)	> 100 µM (inactive)	> 100 µM (inactive)	> 100 µM (inactive)	> 100 µM (inactive)	> 100 µM (inactive)	> 100 µM (inactive)	> 100 µM (inactive)	> 100 µM (inactive)
CC1=NNC(=O)C1C1CC(c2c[nH]c3ccccc23)=NNC1=O (stereo not given)	> 100 µM (inactive)	> 100 µM (inactive)	> 100 µM (inactive)	> 100 µM (inactive)	> 100 µM (inactive)	> 100 µM (inactive)	0.773 µM (active)	> 100 µM (inactive)	> 100 µM (inactive)	> 100 µM (inactive)	> 100 µM (inactive)	> 100 µM (inactive)	> 100 µM (inactive)	> 100 µM (inactive)	> 100 µM (inactive)	> 100 µM (inactive)	> 100 µM (inactive)	28.4 µM (inactive)	> 100 µM (inactive)	> 100 µM (inactive)
O=C1c2ccccc2C(=O)c2c1ccc1c3ccccc3n(-c3ccccc3)c21	46 µM (inactive)	27.7 µM (inactive)	18.2 µM (inactive)	19.7 µM (inactive)	4.84 µM (inactive)	15 µM (inactive)	25.4 µM (inactive)	6.61 µM (inactive)	26.1 µM (inactive)	15.4 µM (inactive)	19.5 µM (inactive)	27.2 µM (inactive)	19.1 µM (inactive)	16.1 µM (inactive)	> 100 µM (inactive)	17.8 µM (inactive)	75.5 µM (inactive)	18.3 µM (inactive)	14.6 µM (inactive)	20.7 µM (inactive)
CN(O)C(=S)c1ccccc1	20.2 µM (inactive)	4.26 µM (inactive)	4.25 µM (inactive)	1.49 µM (inactive)	5.25 µM (inactive)	> 20.2 µM (inactive)	3.52 µM (inactive)	0.347 µM (active)	34.2 µM (inactive)	1.91 µM (inactive)	2.45 µM (inactive)	2.47 µM (inactive)	9.59 µM (inactive)	1.7 µM (inactive)	11.3 µM (inactive)	5.18 µM (inactive)	30.2 µM (inactive)	4.31 µM (inactive)	16.4 µM (inactive)	13.1 µM (inactive)
COc1cc2c(cc1OC)-c1cc3ccccc3c(=O)n1CCC2	6.62 µM (inactive)	8.28 µM (inactive)	7.85 µM (inactive)	3.94 µM (inactive)	15.4 µM (inactive)	14.8 µM (inactive)	7.48 µM (inactive)	3.21 µM (inactive)	12.6 µM (inactive)	19.7 µM (inactive)	15.9 µM (inactive)	9.35 µM (inactive)	2.94 µM (inactive)	11.4 µM (inactive)	7.31 µM (inactive)	13.1 µM (inactive)	18 µM (inactive)	19.1 µM (inactive)	17.9 µM (inactive)	19.8 µM (inactive)
CC/C(Cl)=N\OC(=O)Nc1ccc(OC)c(C)c1	26.5 µM (inactive)	27.9 µM (inactive)	0.832 µM (active)	12.6 µM (inactive)	2.82 µM (inactive)	16.9 µM (inactive)	16.4 µM (inactive)	15.7 µM (inactive)	26.4 µM (inactive)	15 µM (inactive)	16.4 µM (inactive)	17.5 µM (inactive)	17.4 µM (inactive)	18.7 µM (inactive)	58.6 µM (inactive)	15.9 µM (inactive)	42.1 µM (inactive)	80 µM (inactive)	13.9 µM (inactive)	16.5 µM (inactive)
CC(C)(C)N(Cc1ccccc1)C(=O)/C=C\[S+]([O-])c1ccccc1 (stereo not given)	13.4 µM (inactive)	11.5 µM (inactive)	5.85 µM (inactive)	2.43 µM (inactive)	3.37 µM (inactive)	2.07 µM (inactive)	4.79 µM (inactive)	2.22 µM (inactive)	5.07 µM (inactive)	2.86 µM (inactive)	2.48 µM (inactive)	1.84 µM (inactive)	3.94 µM (inactive)	5.25 µM (inactive)	7.62 µM (inactive)	2.61 µM (inactive)	9.77 µM (inactive)	10.9 µM (inactive)	4.2 µM (inactive)	5.08 µM (inactive)
O=c1[nH]c(N/N=C\C(=N/Nc2nc3ccccc3c(=O)[nH]2)C(O)C(O)C(O)CO)nc2ccccc12 (stereo not given)	> 100 µM (inactive)	> 100 µM (inactive)	> 100 µM (inactive)	> 100 µM (inactive)	> 100 µM (inactive)	> 100 µM (inactive)	> 100 µM (inactive)	> 100 µM (inactive)	> 100 µM (inactive)	> 100 µM (inactive)	> 100 µM (inactive)	> 100 µM (inactive)	> 100 µM (inactive)	> 100 µM (inactive)	> 100 µM (inactive)	> 100 µM (inactive)	> 100 µM (inactive)	> 100 µM (inactive)	> 100 µM (inactive)	> 100 µM (inactive)
